Data taken from US10508992B2, “Method and probe for monitoring oxygen status in live mammalian cells” (University College Cork, National University of Ir Cork, priority 2010, dated 2019).

Test system: MEF cells
Conditions: MEF cells loaded with probe 10 ug/ml, 12 h; different concentrations, added at 30 min, FIG. 6
Experimental: The plate was then measured on a Victor 2 reader as described in Example 4. Initially it was monitored for ˜30 min to reach O2 and temperature equilibrium and obtain basal signals, then quickly withdrawn from the reader, compounds were added to the cells (10 ul of 10× stock solution in each well) and monitoring was resumed. Measured TR-F intensity signals for each sample well were converted into phosphorescence lifetime (t) values and plotted. Control samples and repetitive additions were incorporated as appropriate.

N#CC(C#N)=NNc1ccc(OC(F)(F)F)cc1 [FCCP]
response of probe phosphorescence lifetime to stimulation: Increases in probe lifetime
